Laboratory results from patent US6451738B1, “Substituted thienyl(Amino)-sulphonyl(thio)ureas as herbicides” (Bayer Aktiengesellschaft, priority 1996, dated 2002).

How the values were obtained:
[1] = system: Amaranthus; assay: Post-emergence Test/Greenhouse; assay type: in vivo; details: 504 h, after three weeks, 0%=no effect, 100%=total destruction, read-out: degree of damage, Amaranthus; for pest or weed control at 60 g/ha: 60 g of ai./ha
Description: (§1) Solvent: 5 parts by weight of acetone
(§2) Emulsifier: 1 part by weight of alkylaryl polyglycol ether
(§3) To produce a suitable preparation of active compound, 1 part by weight of active compound is mixed with the stated amount of solvent, the stated amount of emulsifier is added and the concentrate is diluted with water to the desired concentration.
(§4) Test plants which have a height of 5-15 cm are sprayed with the preparation of active compound in such a way as to apply the particular amounts of active compound desired per unit area. The concentration of the spray liquor is chosen so that the particular amounts of active compound desired are applied in 1000 l of water/ha.
(§5) After three weeks, the degree of damage to the plants is rated in % damage in comparison to the development of the untreated control.
(§6) 0%=no effect (like untreated control)

[2] = system: Sinapis; assay: Post-emergence Test/Greenhouse; assay type: in vivo; details: after three weeks, 0%=no effect, 100%=total destruction
Description: as §1, §2, §3, §4, §5, §6

[3] = system: weeds; assay: Post-emergence Test; assay type: in vivo; details: in words
Description: as §1, §2, §3, §4, §5, §6

[4] = system: Abutilon; assay: Pre-emergence Test/Greenhouse; assay type: in vivo; details: 60 g of ai./ha, after three weeks, 0%=no effect, 100%=total destruction
Description: as §1, §2, §3
(§7) Seeds of the test plants are sown in normal soil. After about 24 hours, the soil is sprayed with the preparation of active compound in such a way as to apply the particular amounts of active compound desired per unit area. The concentration of the spray liquor is chosen so that the particular amounts of active compound desired are applied in 1000 l of water/ha.
(§8) After three weeks, the degree of damage to the plants is rated in % damage in comparison with the development of the untreated control.
as §6

[5] = system: Amaranthus; assay: Pre-emergence Test/Greenhouse; assay type: in vivo; details: 504 h, after three weeks, 0%=no effect, 100%=total destruction, read-out: degree of damage, Amaranthus; for pest or weed control at 60 g/ha: 60 g of ai./ha; for pest or weed control at 125 g/ha: 125 g of ai./ha
Description: as §1, §2, §3, §7, §8, §6

[6] = system: Sinapis; assay: Pre-emergence Test/Greenhouse; assay type: in vivo; details: after three weeks, 0%=no effect, 100%=total destruction
Description: as §1, §2, §3, §7, §8, §6

[7] = system: weeds; assay: Pre-emergence Test; assay type: in vivo; details: in words
Description: as §1, §2, §3, §7, §8, §6

[8] = system: Abutilon; assay: Post-emergence Test/Greenhouse; assay type: in vivo; details: 60 g of ai./ha, after three weeks, 0%=no effect, 100%=total destruction
Description: as §1, §2, §3, §4, §5, §6

[9] = system: Setaria; assay: Post-emergence Test/Greenhouse; assay type: in vivo; details: 60 g of ai./ha, after three weeks, 0%=no effect, 100%=total destruction
Description: as §1, §2, §3, §4, §5, §6

[10] = system: Alopecurus; assay: Pre-emergence Test/Greenhouse; assay type: in vivo; details: 4 g of ai./ha, after three weeks, 0%=no effect, 100%=total destruction
Description: as §1, §2, §3, §7, §8, §6

[11] = system: Barley; assay: Pre-emergence Test/Greenhouse; assay type: in vivo; details: 4 g of ai./ha, after three weeks, 0%=no effect, 100%=total destruction
Description: as §1, §2, §3, §7, §8, §6

[12] = system: Chenopodium; assay: Pre-emergence Test/Greenhouse; assay type: in vivo; details: after three weeks, 0%=no effect, 100%=total destruction
Description: as §1, §2, §3, §7, §8, §6

[13] = system: Lolium; assay: Pre-emergence Test/Greenhouse; assay type: in vivo; details: after three weeks, 0%=no effect, 100%=total destruction
Description: as §1, §2, §3, §7, §8, §6

[14] = system: Matricaria; assay: Pre-emergence Test/Greenhouse; assay type: in vivo; details: after three weeks, 0%=no effect, 100%=total destruction
Description: as §1, §2, §3, §7, §8, §6

[15] = system: Veronica; assay: Pre-emergence Test/Greenhouse; assay type: in vivo; details: 4 g of ai./ha, after three weeks, 0%=no effect, 100%=total destruction
Description: as §1, §2, §3, §7, §8, §6

[16] = system: Wheat; assay: Pre-emergence Test/Greenhouse; assay type: in vivo; details: after three weeks, 0%=no effect, 100%=total destruction
Description: as §1, §2, §3, §7, §8, §6

[17] = system: Chenopodium; assay: Post-emergence Test/Greenhouse; assay type: in vivo; details: 60 g of ai./ha, after three weeks, 0%=no effect, 100%=total destruction
Description: as §1, §2, §3, §4, §5, §6

[18] = system: Matricaria; assay: Post-emergence Test/Greenhouse; assay type: in vivo; details: 60 g of ai./ha, after three weeks, 0%=no effect, 100%=total destruction
Description: as §1, §2, §3, §4, §5, §6

[19] = system: Xanthium; assay: Post-emergence Test/Greenhouse; assay type: in vivo; details: 60 g of ai./ha, after three weeks, 0%=no effect, 100%=total destruction
Description: as §1, §2, §3, §4, §5, §6

[20] = system: Cyperus; assay: Pre-emergence Test/Greenhouse; assay type: in vivo; details: 60 g of ai./ha, after three weeks, 0%=no effect, 100%=total destruction
Description: as §1, §2, §3, §7, §8, §6

[21] = system: Alopecurus; assay: Post-emergence Test/Greenhouse; assay type: in vivo; details: after three weeks, 0%=no effect, 100%=total destruction
Description: as §1, §2, §3, §4, §5, §6

[22] = system: Avena fatua; assay: Pre-emergence Test/Greenhouse; assay type: in vivo; details: 125 g of ai./ha, after three weeks, 0%=no effect, 100%=total destruction
Description: as §1, §2, §3, §7, §8, §6

[23] = system: Galium; assay: Pre-emergence Test/Greenhouse; assay type: in vivo; details: after three weeks, 0%=no effect, 100%=total destruction
Description: as §1, §2, §3, §7, §8, §6

[24] = system: Setaria; assay: Pre-emergence Test/Greenhouse; assay type: in vivo; details: 60 g of ai./ha, after three weeks, 0%=no effect, 100%=total destruction
Description: as §1, §2, §3, §7, §8, §6

[25] = system: Echinochloa; assay: Pre-emergence Test/Greenhouse; assay type: in vivo; details: 60 g of ai./ha, after three weeks, 0%=no effect, 100%=total destruction
Description: as §1, §2, §3, §7, §8, §6

CSc1nc(C)nc(NC(=O)NS(=O)(=O)c2c(C)csc2C)n1 [Example 11]
pest or weed control at 60 g/ha [1]: 100%
degree of damage, Sinapis ([2]; 60 g of ai./ha): 100%
activity against weeds [3]: strong activity
melting point: 220 °C

COc1cc(C)nc(NC(=O)NS(=O)(=O)c2c(C)csc2C)n1 [Example 15]
degree of damage, Abutilon [4]: 100%
pest or weed control at 60 g/ha [5]: 90%
degree of damage, Sinapis ([6]; 60 g of ai./ha): 100%
activity against weeds [7]: very strong activity
degree of damage, Abutilon [8]: 90%
pest or weed control at 60 g/ha [1]: 100%
degree of damage, Setaria [9]: 90%
degree of damage, Sinapis ([2]; 60 g of ai./ha): 100%
activity against weeds [3]: strong activity
melting point: 140 °C

CCc1nc(NC(=O)NS(=O)(=O)c2c(C)csc2C)nc(OC)n1 [Example 13]
degree of damage, Abutilon [8]: 90%
pest or weed control at 60 g/ha [1]: 100%
degree of damage, Sinapis ([2]; 60 g of ai./ha): 95%
activity against weeds [3]: strong activity
melting point: 161 °C

COc1nc(C)nc(NC(=O)NS(=O)(=O)c2c(C)csc2C)n1 [Example 1, N-(4-methoxy-6-methyl-1,3,5-triazin-2-yl)-N′-(2,4-dimethyl-thien-3-yl-sulplhonyl)-urea]
degree of damage, Alopecurus [10]: 100%
pest or weed control at 4 g/ha ([5]; 4 g of ai./ha): 100%
degree of damage, Barley [11]: 0%
degree of damage, Chenopodium ([12]; 4 g of ai./ha): 100%
degree of damage, Lolium ([13]; 4 g of ai./ha): 100%
degree of damage, Matricaria ([14]; 4 g of ai./ha): 100%
degree of damage, Veronica [15]: 100%
degree of damage, Wheat ([16]; 4 g of ai./ha): 0%
activity against weeds [7]: very strong activity
degree of damage, Abutilon [8]: 95%
pest or weed control at 60 g/ha [1]: 95%
degree of damage, Chenopodium [17]: 100%
degree of damage, Matricaria [18]: 95%
degree of damage, Xanthium [19]: 100%
activity against weeds [3]: strong activity
melting point: 189 °C

COc1nc(NC(=O)NS(=O)(=O)c2c(C)csc2C)nc(OC)n1 [Example 9]
degree of damage, Abutilon [4]: 90%
pest or weed control at 60 g/ha [5]: 90%
degree of damage, Sinapis ([6]; 60 g of ai./ha): 90%
activity against weeds [7]: very strong activity
degree of damage, Abutilon [8]: 80%
pest or weed control at 60 g/ha [1]: 100%
degree of damage, Sinapis ([2]; 60 g of ai./ha): 95%
activity against weeds [3]: strong activity
melting point: 168 °C

Cc1cc(C)nc(NC(=O)NS(=O)(=O)c2c(C)csc2C)n1 [Example 14]
pest or weed control at 60 g/ha [5]: 90%
degree of damage, Cyperus [20]: 100%
degree of damage, Sinapis ([6]; 60 g of ai./ha): 90%
activity against weeds [7]: very strong activity
degree of damage, Alopecurus ([21]; 60 g of ai./ha): 80%
pest or weed control at 60 g/ha [1]: 100%
degree of damage, Sinapis ([2]; 60 g of ai./ha): 100%
activity against weeds [3]: strong activity
melting point: 240 °C

Cc1csc(C)c1S(=O)(=O)NC(=O)Nc1nc(OCC(F)(F)F)nc(N(C)C)n1 [Example 6]
pest or weed control at 125 g/ha [5]: 90%
degree of damage, Avena fatua [22]: 80%
degree of damage, Galium ([23]; 125 g of ai./ha): 100%
degree of damage, Sinapis ([6]; 125 g of ai./ha): 90%
activity against weeds [7]: very strong activity
degree of damage, Alopecurus ([21]; 125 g of ai./ha): 100%
pest or weed control at 125 g/ha ([1]; 125 g of ai./ha): 80%
degree of damage, Sinapis ([2]; 125 g of ai./ha): 100%
activity against weeds [3]: strong activity
melting point: 195 °C

COc1nc(NC(=O)NS(=O)(=O)c2c(C)csc2C)nc(C2CC2)n1 [Example 10]
pest or weed control at 60 g/ha [5]: 80%
degree of damage, Galium ([23]; 60 g of ai./ha): 100%
degree of damage, Setaria [24]: 80%
activity against weeds [7]: very strong activity
melting point: 180 °C

COc1cc(OC)nc(NC(=O)NS(=O)(=O)c2c(C)csc2C)n1 [Example 7]
degree of damage, Chenopodium ([12]; 60 g of ai./ha): 90%
degree of damage, Echinochloa [25]: 95%
degree of damage, Lolium ([13]; 60 g of ai./ha): 95%
degree of damage, Matricaria ([14]; 60 g of ai./ha): 95%
degree of damage, Wheat ([16]; 60 g of ai./ha): 10%
activity against weeds [7]: very strong activity
degree of damage, Abutilon [8]: 95%
pest or weed control at 60 g/ha [1]: 95%
degree of damage, Chenopodium [17]: 95%
degree of damage, Matricaria [18]: 95%
degree of damage, Xanthium [19]: 95%
activity against weeds [3]: strong activity
melting point: 198 °C

Cc1csc(C)c1S(=O)(=O)NC(=O)Nc1nc(Oc2ccccc2)nc(N(C)C)n1 [Example 8]
pest or weed control at 125 g/ha [5]: 80%
degree of damage, Avena fatua [22]: 80%
degree of damage, Galium ([23]; 125 g of ai./ha): 90%
degree of damage, Sinapis ([6]; 125 g of ai./ha): 80%
activity against weeds [7]: very strong activity
melting point: 173 °C

COc1cc(Cl)nc(NC(=O)NS(=O)(=O)c2c(C)csc2C)n1 [Example 16]
pest or weed control at 60 g/ha [5]: 95%
degree of damage, Cyperus [20]: 80%
degree of damage, Sinapis ([6]; 60 g of ai./ha): 95%
activity against weeds [7]: very strong activity
pest or weed control at 60 g/ha [1]: 100%
degree of damage, Sinapis ([2]; 60 g of ai./ha): 95%
activity against weeds [3]: strong activity
melting point: 219 °C
